In US20240342292A1, “Compounds for the Degradation of EGFR Kinase” (BeiGene Switzerland GmbH, priority 2021, published 2024):

Assays:
Del19/T790M/C797S EGFR = assay: EGFR degradation HTRF assay in H1975-clone #28 (DTC) cells; format: cell-based; details: H1975 # 28 DTC (Del19/T790M/C797S), 16h treatment; for DC50: HTRF; for Dmax (%): maximum percentage of degradation
How it was run: (§1)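 Cells carrying only lentiviral mutant EGFR, since endogenous alleles were removed by CRISPR, received compounds on day 2 for 16 h. Final concentrations ran from 10 uM down in 5-fold steps over 8 doses. After lysis, EGFR levels were quantified by HTRF and DC50 derived by curve fitting.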

L858R/T790M/C797S EGFR = target: T1, L858R/T790M/C797S EGFR (Homo sapiens, UniProt P00533, C797S/L858R/T790M); assay: EGFR degradation HTRF assay in H1975-clone #25 (LTC) cells; format: cell-based; details: 16h treatment; for DC50: H1975 # 25-LTC (L858R/T790M/C797S), HTRF; for Dmax: NCI-H1975, H1975 # 25-LTC (L858R/T790M/C797S), maximum percentage of degradation
T1 construct: expressed in transfected cells; host or cells: H1975 clone #25 (lentiviral over-expression, endogenous EGFR knocked out by sgRNA)
How it was run: as §1

T1 sequence (P00533 25-1210 T790M/C797S/L858R): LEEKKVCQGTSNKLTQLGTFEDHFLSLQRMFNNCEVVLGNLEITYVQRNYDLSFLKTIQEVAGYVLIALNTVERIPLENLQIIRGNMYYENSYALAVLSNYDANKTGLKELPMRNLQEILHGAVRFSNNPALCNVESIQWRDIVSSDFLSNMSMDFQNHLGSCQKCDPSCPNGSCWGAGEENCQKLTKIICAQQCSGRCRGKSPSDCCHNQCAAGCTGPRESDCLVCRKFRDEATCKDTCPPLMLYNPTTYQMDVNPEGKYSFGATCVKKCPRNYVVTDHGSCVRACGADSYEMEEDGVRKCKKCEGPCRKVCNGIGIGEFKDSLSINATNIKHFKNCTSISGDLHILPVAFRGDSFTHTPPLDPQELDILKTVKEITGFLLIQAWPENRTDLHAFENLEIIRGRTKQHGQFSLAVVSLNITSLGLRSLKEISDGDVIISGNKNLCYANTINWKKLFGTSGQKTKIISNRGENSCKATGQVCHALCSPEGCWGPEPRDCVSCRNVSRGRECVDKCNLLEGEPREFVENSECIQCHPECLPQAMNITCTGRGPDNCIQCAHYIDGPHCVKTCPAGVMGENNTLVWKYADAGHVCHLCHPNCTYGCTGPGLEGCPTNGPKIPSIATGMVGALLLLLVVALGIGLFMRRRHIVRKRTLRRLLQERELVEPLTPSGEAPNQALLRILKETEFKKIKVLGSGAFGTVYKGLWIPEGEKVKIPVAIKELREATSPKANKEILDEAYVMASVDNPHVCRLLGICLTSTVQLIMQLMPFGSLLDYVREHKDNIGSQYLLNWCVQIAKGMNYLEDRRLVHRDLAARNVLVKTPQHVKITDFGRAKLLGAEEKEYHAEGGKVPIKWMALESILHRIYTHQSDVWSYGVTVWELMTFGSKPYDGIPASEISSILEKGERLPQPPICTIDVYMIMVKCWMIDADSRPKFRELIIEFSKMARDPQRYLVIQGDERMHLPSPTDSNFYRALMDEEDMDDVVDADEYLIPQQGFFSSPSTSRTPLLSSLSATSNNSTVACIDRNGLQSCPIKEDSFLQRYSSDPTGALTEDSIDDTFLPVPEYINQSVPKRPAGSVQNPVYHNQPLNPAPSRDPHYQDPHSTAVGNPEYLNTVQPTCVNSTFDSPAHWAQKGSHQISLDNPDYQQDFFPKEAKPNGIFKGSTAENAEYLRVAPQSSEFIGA

Compound | DC50 (Del19/T790M/C797S EGFR) [nM] | DC50 (L858R/T790M/C797S EGFR) [nM] | Dmax (L858R/T790M/C797S EGFR) [%] | Dmax (%) (Del19/T790M/C797S EGFR)
Cc1cc2cc(n1)-c1cnn(C)c1OCCC[C@@H](C)CN1/C(=N/C2=O)Nc2ccc(N3CCN(C4CCN(c5cc(F)c([C@H]6CCC(=O)NC6=O)c(F)c5)CC4)C[C@@H]3C)cc21 [Example 383, (R)-3-(2,6-difluoro-4-(4-((S)-3-methyl-4-((R,E)-1^1,2^6,7-trimethyl-3-oxo-5^2,5^3-dihydro-1^1H,5^1H-11-oxa-4-aza-5(2,1)-benzo[d]imidazola-2(2,4)-pyridina-1(4,5)-pyrazolacycloundecaphane-5-yl)piperazin-1-yl)piperidin-1-yl)phenyl)piperidine-2,6-dione] | 2.19 | 1.34 | 88.8 | 73.18
Cc1cc2cc(n1)-c1cnn(C)c1OCCC[C@@H](C)CN1/C(=N/C2=O)Nc2ccc(N3CCN(C4CCN(c5cc(F)c([C@H]6CCC(=O)NC6=O)c(F)c5)CC4)C[C@H]3C)cc21 [Example 384, (R)-3-(2,6-difluoro-4-(4-((R)-3-methyl-4-((R,E)-1^1,2^6,7-trimethyl-3-oxo-5^2,5^3-dihydro-1^1H,5^1H-11-oxa-4-aza-5(2,1)-benzo[d]imidazola-2(2,4)-pyridina-1(4,5)-pyrazolacycloundecaphane-5^6-yl)piperazin-1-yl)piperidin-1-yl)phenyl)piperidine-2,6-dione] | 1.5 | 1.67 | 87.7 | 75.83
COC[C@H]1CN(C2CCN(c3cc(F)c([C@H]4CCC(=O)NC4=O)c(F)c3)CC2)CCN1c1ccc2c(c1)N1C[C@H](C)CCCOc3c(cnn3C)-c3cc(cc(C)n3)C(=O)/N=C/1N2 [Example 385, (R)-3-(2,6-difluoro-4-(4-((R)-3-(methoxymethyl)-4-((R,E)-1^1,2^6,7-trimethyl-3-oxo-5^2,5^3-dihydro-1^1H,5^1H-li-oxa-4-aza-5(2,1)-benzo[d]imidazola-2(2,4)-pyridina-1(4,5)-pyrazolacycloundecaphane-5^6-yl)piperazin-1-yl)piperidin-1-yl)phenyl)piperidine-2,6-dione] | 1.58 | 2.63 | 82.3 | 63.01
COC[C@@H]1CN(C2CCN(c3cc(F)c([C@H]4CCC(=O)NC4=O)c(F)c3)CC2)CCN1c1ccc2c(c1)N1C[C@H](C)CCCOc3c(cnn3C)-c3cc(cc(C)n3)C(=O)/N=C/1N2 [Example 386, (R)-3-(2,6-difluoro-4-(4-((S)-3-(methoxymethyl)-4-((R,E)-1^1,2^6,7-trimethyl-3-oxo-5^2,5^3-dihydro-1^1H,5^1H-11-oxa-4-aza-5(2,1)-benzo[d]imidazola-2(2,4)-pyridina-1(4,5)-pyrazolacycloundecaphane-5-yl)piperazin-1-yl)piperidin-1-yl)phenyl)piperidine-2,6-dione] | 2.01 | 2.7 | 86.6 | 72.30
COCc1cc2c(cc1N1CCN(C3CCN(c4cc(F)c([C@H]5CCC(=O)NC5=O)c(F)c4)CC3)CC1)N1C[C@H](C)CCCOc3c(cnn3C)-c3cc(cc(C)n3)C(=O)/N=C/1N2 [Example 390, (R)-3-(2,6-difluoro-4-(4-(4-((R,E)-5^5-(methoxymethyl)-1^1,2^6,7-trimethyl-3-oxo-5^2,5^3-dihydro-1^1H,5^1H-11-oxa-4-aza-5(2,1)-benzo[d]imidazola-2(2,4)-pyridina-1(4,5)-pyrazolacycloundecaphane-5^6-yl)piperazin-1-yl)piperidin-1-yl)phenyl)piperidine-2,6-dione] | 1.69 | 2.49 | 87.7 | 73.87
Cc1cc2cc(n1)-c1cnn(C)c1OCC[C@H]1C[C@@H]1CN1/C(=N/C2=O)Nc2ccc(N3CCN(C4CCN(c5cc(F)c([C@H]6CCC(=O)NC6=O)c(F)c5)CC4)CC3)cc21 [Example 391, (R)-3-(4-(4-(4-((7^1S,7^2R,E)-1^1,2^6-dimethyl-3-oxo-5^2,5^3-dihydro-1^1H,5^1H-10-oxa-4-aza-5(2,1)-benzo[d]imidazola-2(2,4)-pyridina-1(4,5)-pyrazola-7(1,2)-cyclopropanacyclodecaphane-5^6-yl)piperazin-1-yl)piperidin-1-yl)-2,6-difluorophenyl)piperidine-2,6-dione] | 1.54 | 1.56 | 87.5 | 85.34

Molecules with a lower DC50 (Del19/T790M/C797S EGFR), results first:

DC50 (Del19/T790M/C797S EGFR) [nM] | DC50 (L858R/T790M/C797S EGFR) [nM] | Dmax (L858R/T790M/C797S EGFR) [%] | Compound | Dmax (%) (Del19/T790M/C797S EGFR)
1.06 | 0.9 | 83.6 | Cc1cc2cc(n1)-c1cnn(C)c1OCCC[C@@H](C)CN1/C(=N/C2=O)Nc2ccc(N3CCC(N4CCC(Oc5cc(F)c([C@H]6CCC(=O)NC6=O)c(F)c5)CC4)CC3)cc21 [Example 381, (R)-3-(2,6-difluoro-4-((1′-((R,E)-1^1,2^6,7-trimethyl-3-oxo-5^2,5^3-dihydro-1^1H,5^1H-11-oxa-4-aza-5(2,1)-benzo[d]imidazola-2(2,4)-pyridina-1(4,5)-pyrazolacycloundecaphane-5^6-yl)-[1,4′-bipiperidin]-4-yl)oxy)phenyl)piperidine-2,6-dione] | 60.14
0.901 | 0.787 | 74.1 | Cc1cc2cc(n1)-c1cnn(C)c1OCCC[C@@H](C)CN1/C(=N/C2=O)Nc2ccc(N3CCC(N(C)C4CCN(c5cc(F)c([C@H]6CCC(=O)NC6=O)c(F)c5)CC4)CC3)cc21 [Example 394, (R)-3-(2,6-difluoro-4-(4-(methyl(1-((R,E)-1^1,2^6,7-trimethyl-3-oxo-5^2,5^3-dihydro-1^1H,5^1H-11-oxa-4-aza-5(2,1)-benzo[d]imidazola-2(2,4)-pyridina-1(4,5)-pyrazolacycloundecaphane-5^6-yl)piperidin-4-yl)amino)piperidin-1-yl)phenyl)piperidine-2,6-dione] | 69.35
0.821 | 1.29 | 86.7 | Cc1cc2cc(n1)-c1cnn(C)c1OCCC[C@@H](C)CN1/C(=N/C2=O)Nc2ccc(N3CCC(N4CC(Nc5cc(F)c([C@H]6CCC(=O)NC6=O)c(F)c5)C4)CC3)cc21 [Example 392, (R)-3-(2,6-difluoro-4-((1-(1-((R,E)-1^1,2^6,7-trimethyl-3-oxo-5^2,5^3-dihydro-1^1H,5^1H-11-oxa-4-aza-5(2,1)-benzo[d]imidazola-2(2,4)-pyridina-1(4,5)-pyrazolacycloundecaphane-5^6-yl)piperidin-4-yl)azetidin-3-yl)amino)phenyl)piperidine-2,6-dione] | 75.48
0.782 | 1.46 | 87.2 | Cc1cc2cc(n1)-c1cnn(C)c1OCCC[C@@H](C)CN1/C(=N/C2=O)Nc2ccc(N3CCC(N4CCN(c5cc(F)c([C@H]6CCC(=O)NC6=O)c(F)c5)CC4)CC3)cc21 [Example 387, (R)-3-(2,6-difluoro-4-(4-(1-((R,E)-1^1,2^6,7-trimethyl-3-oxo-5^2,53-dihydro-1^1H,5^1H-11-oxa-4-aza-5(2,1)-benzo[d]imidazola-2(2,4)-pyridina-1(4,5)-pyrazolacycloundecaphane-5^6-yl)piperidin-4-yl)piperazin-1-yl)phenyl)piperidine-2,6-dione] | 76.00
0.776 | 1.11 | 86.5 | Cc1cc2cc(n1)-c1cnn(C)c1OCCC[C@@H](C)CN1/C(=N/C2=O)Nc2ccc(N3CCN(C4CCN(c5cc(F)c([C@H]6CCC(=O)NC6=O)c(F)c5)CC4)[C@H](C)C3)cc21 [Example 388, (R)-3-(2,6-difluoro-4-(4-((R)-2-methyl-4-((R,E)-1^1,2^6,7-trimethyl-3-oxo-5^2,5^3-dihydro-1^1H,5^1H-11-oxa-4-aza-5(2,1)-benzo[d]imidazola-2(2,4)-pyridina-1(4,5)-pyrazolacycloundecaphane-5^6-yl)piperazin-1-yl)piperidin-yl)phenyl)piperidine-2,6-dione] | 80.94
0.617 | 0.233 | 87.5 | Cc1cc2cc(n1)-c1cnn(C)c1OCCC[C@@H](C)CN1/C(=N/C2=O)Nc2ccc(C(=O)N(C)[C@@H]3CCN(C4CN(c5cc(F)c([C@H]6CCC(=O)NC6=O)c(F)c5)C4)C[C@@H]3F)cc21 [Example 382, (R,E)-N—((3S,4R)-1-(1-(4-((R)-2,6-dioxopiperidin-3-yl)-3,5-difluorophenyl)azetidin-3-yl)-3-fluoropiperidin-4-yl)-N,1^1,2^6,7-tetramethyl-3-oxo-5^2,5^3-dihydro-1^1H,5^1H-11-oxa-4-aza-5(2,1)-benzo[d]imidazola-2(2,4)-pyridina-1(4,5)-pyrazolacycloundecaphane-5^5-carboxamide] | 86.76
0.54 | 0.34 | 89.8 | Cc1cc2cc(n1)-c1cnn(C)c1OCCC[C@@H](C)CN1/C(=N/C2=O)Nc2ccc(N3CCN(CCc4ccc(C5CCC(=O)NC5=O)nc4C)CC3)cc21 (stereo partly drawn) [Example 393, 3-(6-methyl-5-(2-(4-((R,E)-1^1,2^6,7-trimethyl-3-oxo-5^2,5^3-dihydro-1^1H,5^1H-11-oxa-4-aza-5(2,1)-benzo[d]imidazola-2(2,4)-pyridina-1(4,5)-pyrazolacycloundecaphane-5^6-yl)piperazin-1-yl)ethyl)pyridin-2-yl)piperidine-2,6-dione] | 77.73
0.526 | 1.02 | 84.5 | Cc1cc2cc(n1)-c1cnn(C)c1OCCC[C@@H](C)CN1/C(=N/C2=O)Nc2ccc(N3CCN(C4CCN(c5ccc(C6CCC(=O)NC6=O)nc5)CC4)CC3=O)cc21 (stereo partly drawn) [Example 395, 3-(5-(4-(3-oxo-4-((R,E)-1^1,2^6,7-trimethyl-3-oxo-5^2,5^3-dihydro-1^1H,5^1H-11-oxa-4-aza-5(2,1)-benzo[d]imidazola-2(2,4)-pyridina-1(4,5)-pyrazolacycloundecaphane-5^6-yl)piperazin-1-yl)piperidin-yl-)pyridin-2-yl)piperidine-2,6-dione] | 77.96
